The values below come from patent US5925668A, “Thioctic metabolites and methods of use thereof” (priority 1998, dated 1999).

Data set [1] in a line: Stability in aqueous solutions. In kind it is physicochemical. The note with it: compared to plasma.
Data set [2] in a line: Plasma pharmacokinetics and metabolism of lipoic acid after oral administration of 1 gram R-lipoic acid to a healthy volunteer (HPLC/ECD). In kind it is in vivo, human. The method, then: The HPLC system consisted of a pump (thermo separation products, Spectra SERLES P100,Breda, the Netherlands), an auto-injector (Gilson, Meyvis, model 232 XL, Bergen op Zoom, the Netherlands) with a […] sample loop and a dilutor (Gilson, Meyvis, model 401 C, Bergen op Zoom, the Netherlands). The system was equipped with an electrochemical detector (Coulochem ESA, model 5100 A, Interscience, Breda, the Netherlands) and an analytical cell (ESA, model 5010). Interscience, Breda, the Netherlands) which consisted of two cell compartments.
The separations were performed using a Hypersil C 18 column (125 mm×4.6 mm i.d., […] particle size) and a mobile phase of phosphate buffer (50 mM KH2 PO4 /H3 PO4, pH 2.7) and acetonitrile (65:35, v/v). Before use, the eluent was vacuum filtrated over a […] filter. The flow rate was 0.7 ml/min.
Sample Collection and Preparation
(§1) To a healthy volunteer (82 kg), who fasted overnight, 1 gram of R-lipoic acid (4 capsules of 250 mg) was administered orally. At several time points (0-5 hr), blood samples of 3 ml were taken from a venous cannula into Li-heparine containing tubes. The samples were centrifuged (2000 g at 4° C. for 5 min) and the plasma was analyzed immediately. The proteins in the plasma were precipitated by adding 1 ml ethanol and […] 85% (g/g) H3 PO4 to […] plasma. Thereafter, the sample was thoroughly mixed on a vortex mixer and placed on ice. After 15 min it was centrifuged at 2000 g for 10 min at 4° C. […] of the supernatant were brought onto the column. Quality control samples were prepared by spiking plasma with a small volume (less than 1%) of an ethanol solution of the compound.
For the elucidation of the structure of the metabolites, the plasma obtained at 69, 92 and 119 min was pooled (approximate total volume was 3 ml). The pooled plasma was acidified with 3 ml 3 M sulfuric acid. Thereafter, the sample was extracted twice with 12 ml HPLC-grade ethylacetate (Baker Phillipsburg, N.J.). After evaporation of the ethylacetate the compounds were methylated with diazomethane for 30 min at room temperature. Subsequently, the compounds were dissolved in […] ethanol. A volume of […] was injected on a GC/MS system using a split injection ratio of 1/15. The instrument used was a HP 5890 GC equipped with a HP 5970 mass selective detector. Gas chromatography was performed on a CPSil 5 CB WCOT capillary column (25 m, […] i.d., […]; Chrompack, Middelburg, the Netherlands). While the temperature of the injector and transfer line were kept at 250° C., two oven temperature programs were required to obtain satisfactory separation of all lipoic acid related components from endogenous plasma components. The oven temperature was programmed from 60° C. (kept for 2 min) to 180° C. (at 20° C./min) with an isothermal period (10 min) and subsequent temperature increase to 288° C. (at 20° C./min) and another isothermal period; this produced satisfactory results for all components except bisnorlipoic acid. Bisnorlipoic acid could be separated from background components by using a program from 60° C. (kept for 2 min) to 160° C. (at 20° C./min with an isothermal period (15 min) and subsequent raise to 288° C. (at 20° C./min). Detection was performed by using 70 eV impact ionization.
The Pharmocokinetic Analysis
A volunteer was given 1 gram R-lipoic acid. […] Somewhat later, an unknown metabolite was observed which eluted at 5.5 min (peak nr. 6 in FIG. 2). Thereafter, a second unknown appeared which eluted at 4.7 min (peak nr. 5 in FIG. 2). Subsequently, ca. 45 after administration, bisnorlipoic acid could be detected (peak nr. 4 in FIG. 2). […] The time course of the plasma concentrations of lipoic acid, the two unknown metabolites and bisnorlipoic acid are shown in FIG. 3. Around 45 min a maximum in the lipoic acid concentration is reached. At 75 min a diet containing a high amount of fat was consumed. […]

In the next data set the test system is human cells in culture. The conditions noted are these: cited from earlier work.
The next data set has as its system human erythrocytes. The conditions noted are these: cited from earlier work.
Data set [3] is classed as in vitro ADME. The method, then:
as §1
The stability of lipoic acid in plasma was evaluated by spiking plasma at 0.5 mg/ml and storing it at -25° C. […]
The stability of dihydrolipoic acid in plasma was also evaluated by spiking plasma at 0.5 mg/ml and storing it at -25° C. After approximately 20 hours, ca. 6% of the theoretical value was detected. […] Lipoic acid was also detected in the quality control samples of dihydrolipoic acid used for determination of the accuracy and precision. […] This means that the sample is immediately analyzed after blood sampling, and the pH is reduced to increase the stability of thiols. […]

As for `O=C(O)CCCC[C@@H](S)CCS` (racemic) [dihydrolipoic acid], the “stability in aqueous solutions” value in data set [1] was “more stable”.

Consider `O=C(O)CCCC[C@@H]1CCSS1` (racemic) [lipoic acid, 1,2-dithiolane-3-pentanoic acid], for which the “free plasma concentration before administration” value in data set [2] (human, in vivo) was < 7.8 ng/mL. In data set [2] (human, in vivo, po), the peak level (Cmax) was 1150 ng/mL, the half life stood at 0.933 h and the “time of first appearance in plasma” value came to 30 min. Moreover, the half-life – broadly, the time needed for the level to fall by half in the phase considered – in data set [2] (human, in vivo, po, half life) is ~1 h. Besides, the time of peak concentration (Tmax) – broadly, the time at which the peak concentration occurs – in data set [2] (human, in vivo, po, time of (first) maximum in plasma concentration) is ~0.75 h. Moreover, the time of peak concentration (Tmax) in data set [2] (human, in vivo, po, time of maximum plasma concentration) is 1.53 h. In data set [2] (oral 1 gram R-lipoic acid), the elimination kinetics result is on record as “first order kinetics”, the “presence in plasma after three hours” value is on record as “essentially absent from the plasma” and the “time of first appearance in plasma” value is “Thirty minutes”. Further, the “reduction of lipoic acid into dihydrolipoic acid” value in the data set on human cells in culture is on record as “reduction of lipoic acid was shown”. Also, the “reduction of lipoic acid into dihydrolipoic acid” value with human erythrocytes was “reduction of lipoic acid was shown”. The stability in plasma result in data set [3] is “stable in plasma for at least one week”.

On to `O=C(O)CC(O)CCC1CCSS1` (centres unmarked) [3-hydroxylipoic acid], for which the “order of reaching maximal plasma level” value in data set [2] (human, in vivo, po) is given as “reaches its maximal level before the compound from peak 6 reaches maximum”.

As for `O=C(O)CC(=O)CCC1CCSS1` (centres unmarked) [3-ketolipoic acid], in data set [2] (human, in vivo, po), the “order of reaching maximal plasma level” value was “reaches its maximum plasma level just before bisnorlipoic acid reaches its maximum” and the “time of maximum plasma concentration” value is reported as 119 min.

Regarding `O=C(O)CCC1CCSS1` (centres unmarked) [bisnorlipoic acid], in data set [2] (human, in vivo, po), the “time of first detection in plasma” value is on record as “ca. 45” and the “time of maximum plasma concentration” value stood at 189 min.

As for `O=C(O)C1CCSS1` (centres unmarked) [tetranorlipoic acid], in data set [2] (human, in vivo, po), the “detection in plasma after administration” value is reported as “Neither dihydrolipoic acid nor tetranorlipoic acid were found”.
